{"source": "patent US20200009088A1", "about": "“COMPOSITIONS AND METHODS FOR TREATING ANDROGEN-INDEPENDENT CANCER” (The Regents of the University of California, priority 2017, published 2020)", "key": {"CWR22Rv1 cells": {"test_system": "CWR22Rv1 cells", "test": "Cell growth assay (cell numbers), CWR22Rv1", "assay_type": "cell-based"}, "AR-V3": {"test_system": "AR-V3", "test": "PSA-luc assay in C4-2B cells, AR-V3", "assay_type": "cell-based", "conditions": "FBS, 1 μM overnight, FIG. 14C", "from_the_text": "C4-2B cells were cotransfected with pcDNA, with or without AR-V1, AR-V3, AR-V7, AR-V9 or AR-V12, and with PSA-E/P-luciferase plasmids in FBS condition."}, "C4-2-V7 cells": {"test_system": "C4-2-V7 cells", "test": "Cell growth assay (cell numbers), C4-2-V7", "assay_type": "cell-based", "conditions": "48 hours, FIG. 7D"}, "C4-2B MDVR cells": {"test_system": "C4-2B MDVR cells", "test": "Cell growth assay (cell numbers), C4-2B MDVR", "assay_type": "cell-based", "conditions": "C4-2B MDVR, 48 hours"}, "AR variants [1]": {"test_system": "AR variants", "test": "AR variant protein degradation (cycloheximide, MG132, ubiquitin IP) in CWR22Rv1 cells", "assay_type": "cell-based", "conditions": "FIG. 15", "experimental": "(§1) “AR-Variants” represents a combination of all forms of AR.\n(§2) To determine if the small molecule modulators affect AR-V7 protein expression via protein degradation, CWR22Rv1 and C4-2B MDVR cells were treated with cycloheximide (CHX) and the half-life of AR-V7 protein was measured.\nAfter 0, 2, 4, and 8 hours, whole cell lysate was collected and subjected to Western blot. The half-life of AR-V7 was then calculated.\nSubsequently, the whole cell lysate was collected and subjected to Western blot.\nFor the data shown in FIG. 15C, CWR22Rv1 cells were treated with Nic, Compound 7, or Compound 31. Subsequently, whole cell lysate was immunoprecipitated with an AR antibody and blotted with ubiquitin and AR antibodies."}, "in vivo": {"test": "in vivo", "conditions": "for Cmax: rat plasma, p.o. 200 mg/kg", "experimental": "Blood samples were obtained at the time points indicated in FIG. 18 (0 minutes, 15 minutes, 30 minutes, 1 hour, 1.5 hours, 2 hours, 4 hours, 6 hours, 8 hours, and 24 hours) and the plasma was isolated for LC-MS analysis."}, "C4-2BMDVR cells": {"test_system": "C4-2BMDVR cells", "test": "ELISA cell death (apoptosis) assay", "assay_type": "cell-based", "conditions": "compound alone, analogs compared with niclosamide, FIG. 8", "experimental": "To further examine the anti-cancer effects of these compounds, an ELISA cell death assay was performed."}, "C4-2B AbiR cells": {"test_system": "C4-2B AbiR cells", "test": "Cell growth assay (cell numbers), C4-2B AbiR", "assay_type": "cell-based", "conditions": "48 hours, FIG. 7C"}, "AR variants [2]": {"test_system": "AR variants", "test": "AR variant protein degradation (cycloheximide, MG132, ubiquitin IP) in C4-2B MDVR cells", "assay_type": "cell-based", "conditions": "FIG. 16", "experimental": "as §1, §2\nAfter 0, 2, 4, and 8 hours, whole cell lysate was collected and subjected to Western blot. Half-life of AR-V7 was then calculated.\nWhole cell lysate was subsequently collected and subjected to Western blot.\nWhole cell lysate was immunoprecipitated with an AR antibody and blot with ubiquitin and AR antibodies."}, "[3]": {"conditions": "male, Sprague-Dawley, rat, in vivo, po, 200 mg/kg"}, "[4]": {"conditions": "male, Sprague-Dawley, rat, plasma, po, 200 mg/kg"}}, "data": [{"compound": "O=C(Nc1ccc([N+](=O)[O-])cc1Cl)c1cc(Cl)ccc1O", "note": "[niclosamide, (5-chloro-N-2-chloro-4-nitro-phenyl)-2-hydroxybenzamide, reference compound]", "values": [{"measurement": "cell proliferation, combination with enzalutamide (MDV)", "setting": "CWR22Rv1 cells; CWR22Rv1, 0.5 μM + enzalutamide, 48 hours, FIG. 7A", "value": "further inhibited"}, {"measurement": "cell growth", "setting": "CWR22Rv1 cells; CWR22Rv1, 0.5 μM, 48 hours, FIG. 7A", "value": "significantly inhibited"}, {"measurement": "cell growth", "setting": "CWR22Rv1 cells; CWR22Rv1, 48 hours, increasing doses of niclosamide/analogs, FIG. 6", "value": "able to inhibit cell growth in a dose-dependent manner"}, {"measurement": "AR-V3-mediated PSA-luc activity", "setting": "AR-V3", "value": "inhibited"}, {"measurement": "cell proliferation, combination with enzalutamide (MDV)", "setting": "C4-2-V7 cells; C4-2-V7, 0.5 μM + enzalutamide", "value": "further inhibited"}, {"measurement": "cell growth", "setting": "C4-2-V7 cells; C4-2-V7, 0.5 μM", "value": "significantly inhibited"}, {"measurement": "cell proliferation, combination with enzalutamide (MDV)", "setting": "C4-2B MDVR cells; 0.5 μM + enzalutamide, FIG. 7B", "value": "further inhibited"}, {"measurement": "cell growth", "setting": "C4-2B MDVR cells; 0.5 μM, FIG. 7B", "value": "significantly inhibited"}, {"measurement": "cell growth", "setting": "C4-2B MDVR cells; increasing doses of niclosamide/analogs, FIG. 6", "value": "able to inhibit cell growth in a dose-dependent manner"}, {"measurement": "AR variant degradation via the proteasome-ubiquitination system", "setting": "AR variants [1]", "value": "degraded"}, {"measurement": "AUC_% Extrap_obs", "setting": "in vivo; [3]", "value": "3.67 +/− 3.73%"}, {"measurement": "HL_Lambda_z", "setting": "in vivo; [3]", "value": "328.09 ± 173.05", "unit": "min"}, {"measurement": "AUC(0-inf)", "setting": "in vivo; [4]", "value": 28.4, "unit": "µM·h"}, {"measurement": "AUC(0-t)", "setting": "in vivo; [4]", "value": 4.14, "unit": "µM·h"}, {"measurement": "Tmax", "setting": "in vivo; [4]", "value": 25, "unit": "min"}, {"measurement": "Cmax", "setting": "in vivo; male, Sprague-Dawley, rat, plasma, po, 200 mg/kg, Cmax", "value": 1560, "unit": "nM"}, {"measurement": "Cmax", "setting": "in vivo", "value": 1560, "unit": "nM"}, {"measurement": "cell apoptosis", "setting": "C4-2BMDVR cells", "value": "significantly induced"}, {"measurement": "cell proliferation, combination with enzalutamide (MDV)", "setting": "C4-2B AbiR cells; 0.5 μM + enzalutamide", "value": "further inhibited"}, {"measurement": "cell growth", "setting": "C4-2B AbiR cells; 0.5 μM", "value": "significantly inhibited"}, {"measurement": "AR variant degradation via the proteasome-ubiquitination system", "setting": "AR variants [2]", "value": "degraded"}]}]}
